From US20230132378A9, “COMPOSITIONS AND METHODS FOR TREATING HEMORRHAGIC STROKE” (UNM RAINFOREST INNOVATIONS, priority 2017, published 2023)

Assays:
[1] = tested on: cell death in the hemorrhagic brain; assay: Brain cell death by TUNEL assay after collagenase-induced ICH; format: in vivo, rat
Description: (§1) The Laboratory Animal Care and Use Committee of the University of New Mexico approved all experimental protocols. The animals were used in compliance with the NIH Guide for Care and Use of Laboratory Animals. Male Sprague Dawley rats (Charles River Laboratories, Inc., Wilmington, Mass.) weighing 290 g to 320 g were anesthetized with isoflurane (5% for induction, 2% for maintenance) in N2O/O2 (70:30%) during surgical procedures, and the body temperature was maintained at 37.5° C.±0.5° C. using a heating pad. A small burr hole was made at 3.5 mm right of the bregma. 0.2 U collagenase (Sigma-Aldrich, St. Louis, Mo.) in 1 μl sterile saline was injected to 6.0 mm deep through the burr hole. The needle was removed at five minutes after collagenase injection to prevent backflow. A total of 49 rats were used in this study. […]
A standard terminal deoxynucleotidyl transferase—mediated dUTP nick-end labeling (TUNEL) procedure for frozen tissue sections was performed (Click-iT TUNEL Alexa Fluor 488 Imaging Assay kit (Thermo Fisher Scientific, Waltham, Mass.). Histological images were captured on a fluorescence microscope (Olympus IX71, Olympus Corp., Center Valley, Pa.) with a TRITC dichroic mirror.

[2] = tested on: ZnPP generation in the hemorrhagic brain; assay: ZnPP autofluorescence imaging on hemorrhagic brain slices; format: in vivo, rat
Description: (§2) The Laboratory Animal Care and Use Committee of the University of New Mexico approved all experimental protocols. The animals were used in compliance with the NIH Guide for Care and Use of Laboratory Animals. Male Sprague Dawley rats (Charles River Laboratories, Inc., Wilmington, Mass.) weighing 290 g to 320 g were anesthetized with isoflurane (5% for induction, 2% for maintenance) in N2O/O2 (70:30%) during surgical procedures, and the body temperature was maintained at 37.5° C.±0.5° C. using a heating pad. A small burr hole was made at 3.5 mm right of the bregma. 0.2 U collagenase (Sigma-Aldrich, St. Louis, Mo.) in 1 μl sterile saline was injected to 6.0 mm deep through the burr hole. The needle was removed at five minutes after collagenase injection to prevent backflow. A total of 49 rats were used in this study.
N,N,N′,N′-tetrakis-(2-Pyridylmethyl)ethylenediamine (TPEN, Sigma-Aldrich, St. Louis, Mo.) was dissolved in dimethyl sulfoxide (DMSO) to 25 mg/ml and then further diluted in physiological saline to a final concentration of 2.5 mg/ml. 10 mg/kg TPEN was intraperitoneal injected at one hour before collagenase injection. Saline with 10% DMSO was used as control.
N-methyl protoporphyrin IX (Santa Cruz Biotechnology, Inc., Dallas, Tex.), a ferrochelatase inhibitor was dissolved in DMSO to 200 mg/ml and then further diluted in physiological saline to a final concentration of 20 mg/ml. […]

[3] = tested on: labile zinc accumulation in brain tissue after hemorrhagic stroke; assay: Labile zinc staining (Fluozin-3) on brain slices after collagenase-induced ICH; format: in vivo, rat; settings: rats pretreated with 10 mg/kg i.p. one hour before collagenase injection; versus saline control
Description: as §1
To detect labile zinc in brain tissue, cryosections 16 μm thick were stained with the zinc-specific membrane-permeable fluorescent dyes Fluozin-3 (Invitrogen, Thermo Fisher Scientific, Carlsbad, Calif.). […] After washing in saline, images were acquired by a fluorescence microscope (Olympus IX71, Olympus Corp., Center Valley, Pa.) with a GFP dichroic mirror.

[4] = tested on: ICH-induced brain damage; assay: Brain damage by T2-weighted MRI after collagenase-induced ICH; format: in vivo, rat
Description: as §2
All multimodal magnetic resonance imaging (MRI) of the rat was performed by using a 4.7-Tesla MRI scanner (Bruker Biospin, Billerica, Mass.), which was equipped with a 40-cm bore, a 660 mT/m (rise time within 120 μs) gradient and shim systems (Bruker Biospin, Billerica, Mass.). The rats were anaesthetized with 2% isoflurane (Clipper Distributing Company, LLC, St. Joseph, Mo.) during MRI. At the same time respiration and heart rate were monitored. The body temperature of the rats was maintained at 37.0° C.±0.5° C. […]

[5] = tested on: whole rat blood; assay: ZnPP generation in whole blood with zinc under hypoxia; settings: 100 μM zinc, hypoxia three hours, P=0.00096
Description: (§3) The animals were euthanized at 24 hours after collagenase injection. The brains were harvested and cut into 2-mm thick coronal slice. The tissue with visible blood at the hemorrhagic hemisphere of each slice was collected. And the tissue at the corresponding location at the contralateral hemisphere was also collected. The tissue was homogenized on ice in ethanol. After centrifugation at 13,000×g, the fluorescence intensity (excitation=416 nm, emission=588 nm) was determined using a SpectraMax M2 Multi-Mode Microplate Readers (Molecular Devices LLC, Sunnyvale, Calif.) as previously described (Nakamura et al., 2011. J Control Release 155(3):367-375. After being treated with heparin as an anti-coagulant, 50 μl blood was diluted in ethanol. Followed by centrifugation, the fluorescence intensity of ZnPP in the ethanol extract supernatant was measured.
Blood was drawn from normal Sprague Dawley rats. Blood was subjected to hypoxia by incubating in a humidified airtight chamber (Billups-Rothenberg, Inc., San Diego, Calif.) equipped with an air lock and flushed with 95% N2/5% CO2 for 15 minutes. Then the chamber was scaled and kept at 37° C. for three hours.

[6] = tested on: ZnPP in hemorrhagic hemisphere tissue; assay: Fluorescence spectrophotometry of ZnPP in brain tissue extract; format: in vivo, rat; settings: TPEN pretreatment
Description: as §1
as §3, with “The brains were harvested and cut into 2-mm thick coronal slice. The tissue with visible blood at the hemorrhagic hemisphere of each slice was collected. And the tissue at the corresponding location at the contralateral hemisphere was also collected. The tissue was homogenized on ice in ethanol.” left out

[7] = tested on: primary neurons; assay: Cytotoxicity (Cytotox 96 LDH release) in primary neurons; format: cell-based; settings: for neuron toxicity under hypoxia / cell death in normoxia: three-hour exposure; for neuron toxicity under hypoxia: 2.5-7.5 μM; for cell death in normoxia: any concentration tested
[8] = molecular target: T1, heme oxygenase-1 (HO-1) (Homo sapiens, UniProt P09601); settings: levels as low as; cited from earlier work
T1 sequence (P09601 1-288): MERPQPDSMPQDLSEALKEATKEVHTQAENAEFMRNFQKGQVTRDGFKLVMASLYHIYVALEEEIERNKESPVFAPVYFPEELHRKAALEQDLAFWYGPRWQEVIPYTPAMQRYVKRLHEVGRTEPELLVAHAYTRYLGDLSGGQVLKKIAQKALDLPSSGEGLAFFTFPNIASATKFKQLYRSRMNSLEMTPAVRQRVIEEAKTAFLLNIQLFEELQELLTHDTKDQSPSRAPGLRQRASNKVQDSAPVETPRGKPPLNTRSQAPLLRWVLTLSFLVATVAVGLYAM

[9] = tested on: brain of permanent MCAO rat model; assay: ZnPP injection into brain parenchyma of MCAO or normal rats, T2-weighted MRI; format: in vivo; settings: MCAO rats, ZnPP 10 μg/kg into brain parenchyma of ischemic side
Description: All multimodal magnetic resonance imaging (MRI) of the rat was performed by using a 4.7-Tesla MRI scanner (Bruker Biospin, Billerica, Mass.), which was equipped with a 40-cm bore, a 660 mT/m (rise time within 120 μs) gradient and shim systems (Bruker Biospin, Billerica, Mass.). The rats were anaesthetized with 2% isoflurane (Clipper Distributing Company, LLC, St. Joseph, Mo.) during MRI. At the same time respiration and heart rate were monitored. The body temperature of the rats was maintained at 37.0° C.±0.5° C. The success of the intracerebral hemorrhage model and brain damage was estimated by T2-weighted images. T2-weighted images were acquired with a fast spin-echo sequence (rapid acquisition with relaxation enhancement (RARE)) (Repetition Time (TR)/Echo Time (TE)=5,000 ms/56 ms, Field of View (FOV)=4 cm×4 cm, slice thickness=1 mm, inter-slice distance=1.1 mm, number of slices=12, matrix=256×256, number of average=3).
Middle cerebral artery occlusion (MCAO) surgery was used to induce focal cerebral ischemia through intraluminal filament methods as described previously (Zhao et al., 2014, Stroke 45:1139-1147). The animals underwent right MCAO for 24 hours. ZnPP (10 μg/kg) in […] or 5 μl saline was injected to 6.0 mm deep at 3.5 mm right of the bregma through a burr hole on normal or MCAO rat, 10 minutes after MCAO onset.

[10] = tested on: primary astrocytes; assay: Cytotoxicity (Cytotox 96 LDH release) in primary astrocytes; format: cell-based; settings: three-hour exposure, 5 and 7.5 μM
Description: Astrocytic death rate was measured using Cytotox 96 nonradioactive cytotoxicity assay kit (Promega, Madison, Wis.), which quantitatively measures lactate dehydrogenase (LDH) release from dead cells. Astroytes (5×10^3 cells/well) were seeded into 96-well microtiter plates. Following three hours normoxia or hypoxia treatment, 50 μl of the reconstituted substrate mixture was added to each well of the plate. Thirty minutes later, 50 μl of the stop solution was added to each well, and the absorbance was measured at 490 nm in a microplate reader (Bio-Rad 3350, Bio-Rad Laboratories, Inc. Hercules, Calif.). Triton-X 100-treated cells were used as 100% cell death control. The cell death rate was calculated by using the formula: Cell death rate=(Experimental absorbance value−culture medium absorbance value)/(Triton-X 100-treated absorbance value−culture medium absorbance value).

[11] = molecular target: T2, ferrochelatase (Homo sapiens, UniProt P22830); settings: cited from earlier work
T2 sequence (P22830 55-423): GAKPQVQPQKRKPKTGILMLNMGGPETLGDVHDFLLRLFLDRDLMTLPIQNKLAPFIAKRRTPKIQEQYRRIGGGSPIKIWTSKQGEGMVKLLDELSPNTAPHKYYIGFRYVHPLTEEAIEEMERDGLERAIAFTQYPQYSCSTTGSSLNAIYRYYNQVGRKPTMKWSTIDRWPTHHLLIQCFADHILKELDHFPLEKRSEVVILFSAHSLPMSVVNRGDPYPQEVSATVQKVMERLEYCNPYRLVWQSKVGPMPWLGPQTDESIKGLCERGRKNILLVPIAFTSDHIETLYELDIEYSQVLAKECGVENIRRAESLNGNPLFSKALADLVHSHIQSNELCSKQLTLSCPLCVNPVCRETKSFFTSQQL

Compound: c1ccc(CN(CCN(Cc2ccccn2)Cc2ccccn2)Cc2ccccn2)nc1 [TPEN, N,N,N′,N′-tetrakis-(2-Pyridylmethyl)ethylenediamine]
- TUNEL signal (cell death) at edge of hemorrhagic area ([1]; TPEN 10 mg/kg i.p. one hour before collagenase injection): markedly decreased
- ZnPP fluorescence on brain slices ([2]; TPEN pretreatment, 24 hours after collagenase injection, P=0.0034): significantly decreased
- zinc fluorescence signal (Fluozin-3) around hemorrhagic area [3]: significantly reduced
- hyperintense lesion on T2-weighted MRI (brain damage) ([4]; TPEN pretreatment, 24 hours after collagenase-induced ICH): significantly reduced
- zinc-induced ZnPP generation in hypoxic blood [5]: decreased
- ZnPP formed at the hemorrhagic hemisphere (fluorescence intensity at 588 nm) [6]: significantly reduced

Compound: C=CC1=C(C)c2cc3[n-]c(cc4nc(cc5[n-]c(cc1n2)c(C)c5C=C)C(C)=C4CCC(=O)O)c(CCC(=O)O)c3C.[Zn+2] [ZnPP, zinc protoporphyrin]
- neuron toxicity under hypoxia ([7]; hypoxia): significant dose-dependent increases
- toxicity in hypoxia compared with hemin (neurons) ([7]; hypoxia, 2.5 μM P=0.0092, 5 μM P=0.0046, 7.5 μM P=0.0059): greater than that of hemin
- cell death in normoxia [7]: Neither ZnPP nor hemin induced significant cell death
- level significantly decreasing HO-1 activity [8]: 0.15
- brain damage area on T2-weighted MRI after ZnPP injection [9]: significantly increased
- astrocyte toxicity in hypoxia [10]: dose dependent increase in toxicity

Compound: N-methyl protoporphyrin IX [N-methyl PP]
- number of TUNEL positive cells relative to saline treated control group ([1]; N-methyl PP 100 mg/kg i.p. pretreatment, P=0.000039): 14%
- reduction of ZnPP fluorescence in brain tissue versus no treatment ([2]; N-methyl PP 100 mg/kg i.p. one hour before ICH induction, P=0.0037): about two thirds
- brain damage in ICH by T2-weighted MRI ([4]; N-methyl PP pretreatment one hour before collagenase-induced ICH, P=0.043): significantly reduced
- inhibition of ferrochelatase [11]: potently inhibited

Compound: hemin
- neuron toxicity under hypoxia ([7]; hypoxia): significant dose-dependent increases
- cell death in normoxia [7]: Neither ZnPP nor hemin induced significant cell death
- astrocyte toxicity in hypoxia [10]: did not
